Tests used:
Plasmodium falciparum = experiment: Antiplasmodial activity against chloroquine-, pyrimethamine- and proguanil-resistant Plasmodium falciparum K1 infected in human erythrocytes after 72 hrs by SYBR Green I fluorescence-based method; type: functional, organism-based; conditions: K1, 72 h
[1] = Selectivity index, ratio of CC50 for human HepG2 cells to IC50 for chloroquine-, pyrimethamine- and proguanil-resistant Plasmodium falciparum K1 infected in human erythrocytes; type: functional
[2] = Cytotoxicity against human HepG2 cells after 72 hrs by MTT assay; type: cell-based
[3] = Selectivity index, ratio of CC50 for human HepG2 cells to IC50 for Plasmodium falciparum W2; type: functional

Row | Structure (SMILES) | IC50 (Plasmodium falciparum) [µM] | Ratio CC50/IC50 [1] | CC50 at 72 h [2] [µM] | Ratio CC50/IC50 [3]
1 | Fc1ccc2c(c1)nc(C(Cl)(Cl)Cl)c1cccn12 | 1.7 | >8.8 | > 15 | –
2 | ClC(Cl)(Cl)c1nccc2ccccc12 | 8 | 22.5 | 180 | –
3 | Cc1nc2ccccc2n2cccc12 | > 50 | <2.4 | 120 | –
4 | c1ccc2nccnc2c1 [QUINOXALINE] | > 50 | – | > 500 | –
5 | N/C(=N/O)c1ccc2c(c1)nc(C(Cl)(Cl)Cl)c1cccn12 | 1.75 | >8.6 | > 15 | –
6 | ClC(Cl)(Cl)c1nc2cc(I)ccc2n2cccc12 | 1.2 | 5.5 | 6.6 | –
7 | ClC(Cl)(Cl)c1nc2ccccc2n2cccc12 | 1.5 | 27.5 | 41.2 | –
8 | Cc1nc2cc(C#N)ccc2n2cccc12 | > 50 | – | > 31.5 | –
9 | ClC(Cl)(Cl)c1ncnc2ccccc12 | > 50 | – | > 500 | –
10 | ClC(Cl)c1cnc2ccccc2n1 | 12.8 | 1.5 | 19.3 | –
11 | Cc1ncc2ccccc2n1 | > 50 | <7 | 350 | –
12 | ClC(Cl)(Cl)c1ncc2ccccc2n1 | 17.6 | 3.5 | 61 | –
13 | N#Cc1ccc2c(c1)nc(C(Cl)(Cl)Cl)c1cccn12 | 1.5 | 11.3 | 17 | –
14 | Cc1ccc2ccccc2n1 [QUINALDINE] | > 50 | – | > 500 | –
15 | Cc1cnc2ccccc2n1 | > 50 | – | > 500 | –
16 | ClC(Cl)(Cl)c1nc2ccccc2nc1-c1ccccc1 | 0.2 | 17.5 | 3.5 | –
17 | O=C(O)c1ccc2c(c1)nc(C(Cl)(Cl)Cl)c1cccn12 | 22 | <10.6 | 106 | –
18 | C[C@H]1c2cccc(O)c2C(=O)C2=C(O)[C@]3(O)C(=O)C(C(N)=O)=C(O)[C@@H](N(C)C)[C@@H]3[C@@H](O)[C@@H]21.O [DOXYCYCLINE] | 6 | 3.3 | – | –
19 | ClC(Cl)(Cl)c1cnc2ccccc2n1 | 1.5 | 2.1 | 3.1 | –
20 | FC(F)(F)c1cnc2ccccc2n1 | > 50 | – | > 500 | –
21 | Cc1ccc2c(c1)nc(C(Cl)(Cl)Cl)c1cccn12 | 2.4 | 22.1 | 53 | –
22 | Cc1nccc2ccccc12 | > 50 | <3.6 | 179 | –
23 | FC(F)(F)c1nc2ccccc2n2cccc12 | > 50 | <3.2 | 160 | –
24 | Clc1ccc2c(c1)nc(C(Cl)(Cl)Cl)c1cccn12 | 1.6 | 6.1 | 9.8 | –
25 | Cc1ccc2c(c1)nc(C)c1cccn12 | > 50 | <4.7 | 57 | –
26 | COc1ccc2c(c1)nc(C(Cl)(Cl)Cl)c1cccn12 | 4.2 | 8.3 | 35 | –
27 | ClC(Cl)(Cl)c1nc(-c2ccccc2)c2ccccc2n1 | – | – | > 125 | >15.6

Source: ChEMBL document CHEMBL3286299, “Synthesis and in vitro evaluation of 4-trichloromethylpyrrolo[1,2-a]quinoxalines as new antiplasmodial agents” (Eur J Med Chem, 2014)
